Test results from ChEMBL document CHEMBL5126512, “Current status of carbazole hybrids as anticancer agents” (Eur J Med Chem, 2022).
Values belong to the compound of their own block, whether it stands above or below them.

Legend:
[1] = Anticancer activity against cisplatin/camptothecin resistant human CLS-354 cells assessed as cell growth inhibition measured after 24 hrs by MTT assay; assay type: functional, cell-based; details: CLS-354, 24 h
[2] = Anticancer activity against human CLS-354 cells assessed as cell growth inhibition measured after 24 hrs by MTT assay; assay type: functional, cell-based; details: CLS-354, 24 h
[3] = Potency index, ratio of cisplatin IC50 to compound IC50 for anticancer activity against cisplatin/camptothecin resistant human CLS-354 cells by MTT assay; assay type: functional
MCF7 [4] = experiment: Antiproliferative activity against human MCF7 cells assessed as cell growth inhibition measured after 48 hrs by MTT assay; assay type: functional, cell-based; details: MCF7, 48 h
A549 [5] = experiment: Antiproliferative activity against human A549 cells assessed as cell growth inhibition measured after 48 hrs by MTT assay; assay type: functional, cell-based; details: A549, 48 h
HCT-116 = experiment: Antitumor activity against human HCT-116 cells xenografted in BALB/c nu/nu mouse assessed as reduction in tumor volume at 100 mg/kg/day, ip administered for 20 days measured by caliper relative to control; assay type: functional; design: scale not given: the % may be the effect or the level left; details: time 20 day
HeLa [6] = experiment: Cytotoxicity against human HeLa cells assessed as cell growth inhibition by MTT assay; assay type: functional, cell-based
A549 [7] = experiment: Antitumour activity against human A549 cells xenografted in mouse assessed as reduction in tumor volume at 3 mg/kg relative to control; assay type: functional; design: scale not given: the % may be the effect or the level left
NCI-H1299 = experiment: Cytotoxicity against human NCI-H1299 cells assessed as cell growth inhibition by Trypan blue staining based analysis; assay type: functional; details: pooled result: one value given for 6 cell lines, strains, targets or settings
MCF7 [8] = experiment: Cytotoxicity against human MCF7 cells assessed as cell growth inhibition measured after 48 hrs by MTT assay; assay type: functional, cell-based; details: MCF7, 48 h
MCF7 [9] = experiment: Potency index, ratio of Doxorubicin IC50 to compound IC50 for cytotoxicity against human MCF7 cells by MTT assay; assay type: functional
SGC-7901 = experiment: Antiproliferative activity against human SGC-7901 cells assessed as cell growth inhibition measured after 72 hrs by MTT assay; assay type: functional, cell-based; details: SGC-7901, 72 h
AGS = experiment: Antiproliferative activity against human AGS cells assessed as cell growth inhibition measured after 72 hrs by MTT assay; assay type: functional, cell-based
MDA-MB-231 = experiment: Cytotoxicity against human MDA-MB-231 cells assessed as cell growth inhibition measured after 48 hrs by MTT assay; assay type: functional, cell-based; details: MDA-MB-231, 48 h
[10] = Cytotoxicity against human HUVEC cells assessed as cell growth inhibition measured after 48 hrs by MTT assay; assay type: toxicity, cell-based
HeLa [11] = experiment: Cytotoxicity against human HeLa cells assessed as cell growth inhibition measured after 48 hrs by MTT assay; assay type: functional, cell-based

Structure (SMILES): CC(C)=CCC[C@@]1(C)C=Cc2c(ccc3c2[nH]c2cc(O)c(C)cc23)O1
IC50 [1]: 16 µM
IC50 [2]: 14.4 µM
Ratio IC50 [3]: 2.1

IC50 (MCF7 [4]): 5.48 µM
IC50 (A549 [5]): 5.04 µM
Structure (SMILES): Cn1c2ccccc2c2cc(C3NCCc4c3[nH]c3ccccc43)ccc21 (configuration not stated)

Structure (SMILES): CCn1c2ccccc2c2cc(/C=N/NC(=O)c3ccccc3Cl)ccc21
Activity (HCT-116): 35%
IC50 (HeLa [6]): 3.12 µM

Structure (SMILES): CCn1c2ccccc2c2cc(NC(=O)NCCN3CCN(C(=O)c4ccco4)CC3)ccc21
Activity (A549 [7]): 65%
IC50 (NCI-H1299): 1.78 µM

Structure (SMILES): N#CC1=C(N)Oc2ccc3c([nH]c4ccccc43)c2C12C(=O)N(Cc1cn(Cc3ccc([N+](=O)[O-])cc3)nn1)c1ccccc12 (configuration not stated)
IC50 (MCF7 [8]): 2.13 µM
Ratio IC50 (MCF7 [9]): 2.1

IC50 (SGC-7901): 1.5 µM
IC50 (AGS): 0.4 µM
Structure (SMILES): N=C(N)N/N=C/c1ccc2c(c1)c1ccccc1n2Cc1ccccc1F

Structure (SMILES): CCCCCn1cc(CN2C(=O)C3(C(C#N)=C(N)Oc4ccc5c([nH]c6ccccc65)c43)c3ccccc32)nn1 (configuration not stated)
IC50 (MCF7 [8]): 4.8 µM
IC50 (MDA-MB-231): 4.8 µM
IC50 at 48 h [10]: 4.8 µM
IC50 (HeLa [11]): 4.8 µM
